Values after ≈ are worked out from the molar mass of the structure shown. Peptide text beside a SMILES is read from it. * marks the point of attachment. Acm = CC(=O)NC*
What was measured:
E. coli ATCC 25922 = type: cell-based, Escherichia coli; conditions: ATCC 25922, 24 h
Experimental: (§1) Escherichia coli (ATCC 25922), E. coli HB101, Pseudomonas aeruginosa (ATCC 27853), Staphylococcus aureus (ATCC 9144) and Corynebacterium glutamicum (ATCC 13032) were grown at 37°C in Mueller Hinton agar (MH; Difco Laboratories, Detroit, USA). The yeasts Candida albicans (ATCC 10231) and Saccharomyces cerevisiae spp and the mold Botrytis cinerea 101 [33] were cultivated on potato dextrose agar supplemented with 2% glucose at room temperature (RT).
(§2) Determination of the MIC against bacteria was performed by continuous monitoring of bacterial growth using a Bioscreen C microbiology reader (Labsystems Oy, Helsinki, Finland). The synthetic peptides were tested for antibacterial and antifungal activity at final concentrations (prepared from serial two-fold dilutions) ranging from 0.2 µM to 100 µM. The test was performed in 100-well flat-bottomed honeycomb plates, in which 50 µl peptide solution was incubated with 50 µl of a suspension of an actively growing culture of bacteria diluted to a starting concentration of 2.5×10^5 CFU/ml in Mueller Hinton Broth (MHB). The growth chamber was maintained at 37°C during the incubation period. The absorbance was measured by a turbidometric method with vertical light photometry and a wide band filter (420–580 nm). MIC was defined as the lowest concentration resulting in no visible bacterial growth after 24 h.

P. aeruginosa ATCC 27853 = type: cell-based, Pseudomonas aeruginosa; conditions: ATCC 27853, 24 h
Experimental: as §1, §2

C. glutamicum ATCC 13032 = type: cell-based, Corynebacterium glutamicum; conditions: ATCC 13032, 24 h
Experimental: as §1, §2

S. aureus ATCC 9144 = type: cell-based, Staphylococcus aureus; conditions: ATCC 9144, 24 h
Experimental: as §1, §2

S. cerevisiae spp. = type: cell-based, Saccharomyces cerevisiae; conditions: 48 h
Experimental: as §1
(§3) Fungal spores were dissolved in potato dextrose broth (Difco, Lawrence, KS, USA) and the cell concentration was determined and adjusted after counting in a Bürker chamber. Botrytis cinerea was filtered through a piece of cotton before counting. An aliquot of 50 µl of fungal spores (final concentration 2×10^5 spores/ml) were inoculated in 96-well Nunclon™ microtitre plates (Nagle Nunc Int. Roskilde, Denmark) along with 50 µl of synthetic peptide dissolved in Milli-Q water. Cultures were grown in a dark moist chamber without shaking at 20°C for S. cerevisiae and B. cinerea, and at 37°C for C. albicans. Growth inhibition was determined microscopically after 48 h of incubation. Inhibitory concentrations (IC50) was defined as the lowest concentration tested which yielded less than 50% visible growth compared to the growth control (fungi). Each peptide was tested in parallels in three individual runs for the antimicrobial assays.

C. albicans ATCC 10231 = type: cell-based, Candida albicans; conditions: for IC50: ATCC 10231, 48 h; for IC50 C. albicans ATCC 10231: lowest concentration tested giving less than 50% visible growth vs growth control, potato dextrose medium, 37°C, 48 h, three individual experiments
Experimental: as §1, §3

B. cinerea 101 = type: cell-based, Botrytis cinerea; conditions: for IC50: 101, 48 h; for IC50 B. cinerea 101: lowest concentration tested giving less than 50% visible growth vs growth control, potato dextrose medium, 20°C, 48 h, three individual experiments
Experimental: as §1, §3

E. coli HB101 = assay: Antibacterial MIC assay (Bioscreen C growth monitoring); type: cell-based, Escherichia coli; conditions: lowest concentration with no visible bacterial growth after 24 h; 37°C, 50% MH, 2.5×10^5 cells/mL; representative of three individual experiments
Experimental: as §1, §2

Row | SMILES | MIC E. coli ATCC 25922 (E. coli ATCC 25922) [µM] | MIC P. aeruginosa ATCC 27853 (P. aeruginosa ATCC 27853) [µM] | MIC C. glutamicum ATCC 13032 (C. glutamicum ATCC 13032) [µM] | MIC S. aureus ATCC 9144 (S. aureus ATCC 9144) [µM] | IC50 (S. cerevisiae spp.) [µM] | IC50 (C. albicans ATCC 10231) [µM] | IC50 (B. cinerea 101) [µM] | IC50 C. albicans ATCC 10231 (C. albicans ATCC 10231) [µM] | MIC E. coli HB101 (E. coli HB101) [µM] | IC50 B. cinerea 101 (B. cinerea 101) [µM]
1 | N=C(N)NCCC[C@H](NC(=O)[C@@H](N)CO)C(=O)N[C@@H](Cc1c[nH]c2ccccc12)C(=O)N1CCC[C@H]1C(=O)N[C@@H](CO)C(=O)N1CCC[C@H]1C(=O)NCC(=O)N[C@@H](CCCNC(=N)N)C(=O)N1CCC[C@H]1C(=O)N[C@@H](CCCNC(=N)N)C(=O)N1CCC[C@H]1C(=O)N[C@@H](Cc1ccccc1)C(=O)N1CCC[C@H]1C(=O)NCC(=O)O [Arasin 1(1–14)] (H-SRWPSPGRPRPFPG-OH; N-terminus and C-terminus assumed) | >100 | >100 | >100 | >100 | > 100 | > 100 | > 100 |  |  | 
2 | CC[C@H](C)[C@H](NC(=O)[C@@H]1CCCN1C(=O)[C@H](CCCCN)NC(=O)[C@@H]1CCCN1C(=O)[C@H](CCCNC(=N)N)NC(=O)CNC(=O)[C@@H]1CCCN1C(=O)[C@H](Cc1ccccc1)NC(=O)[C@@H]1CCCN1C(=O)[C@H](CCCNC(=N)N)NC(=O)[C@@H]1CCCN1C(=O)[C@H](CCCNC(=N)N)NC(=O)CNC(=O)[C@@H]1CCCN1C(=O)[C@H](CO)NC(=O)[C@@H]1CCCN1C(=O)[C@H](Cc1c[nH]c2ccccc12)NC(=O)[C@H](CCCNC(=N)N)NC(=O)[C@@H](N)CO)C(=O)N[C@@H](Cc1ccccc1)C(=O)O [Arasin 1(1–20)] (H-SRWPSPGRPRPFPGRPKPIF-OH; N-terminus and C-terminus assumed) | >100 | >100 | 12.5 to 25 | >100 | 25 |  | 25 to 50 | 50 |  | 
3 | CC[C@H](C)[C@H](NC(=O)[C@@H]1CCCN1C(=O)[C@H](CCCCN)NC(=O)[C@@H]1CCCN1C(=O)[C@H](CCCNC(=N)N)NC(=O)CNC(=O)[C@@H]1CCCN1C(=O)[C@H](Cc1ccccc1)NC(=O)[C@@H]1CCCN1C(=O)[C@H](CCCNC(=N)N)NC(=O)[C@@H]1CCCN1C(=O)[C@H](CCCNC(=N)N)NC(=O)CNC(=O)[C@@H]1CCCN1C(=O)[C@H](CO)NC(=O)[C@@H]1CCCN1C(=O)[C@@H](N)Cc1c[nH]c2ccccc12)C(=O)N[C@@H](Cc1ccccc1)C(=O)N[C@@H](CCCNC(=N)N)C(=O)N1CCC[C@H]1C(=O)N[C@@H](CCCNC(=N)N)C(N)=O [Arasin 1(3–23)] (H-WPSPGRPRPFPGRPKPIFRPR-NH2; N-terminus assumed) | 25 to 50 | 100 (≈ 250 µg/mL) | 3.1 (≈ 7.74 µg/mL) | >100 | 12.5 | 25 | 25 |  | 12.5 (≈ 31.2 µg/mL) | 
4 | CC[C@H](C)[C@H](NC(=O)[C@@H]1CCCN1C(=O)[C@H](CCCCN)NC(=O)[C@@H]1CCCN1C(=O)[C@H](CCCNC(=N)N)NC(=O)CNC(=O)[C@@H]1CCCN1C(=O)[C@H](Cc1ccccc1)NC(=O)[C@@H]1CCCN1C(=O)[C@H](CCCNC(=N)N)NC(=O)[C@@H]1CCCN1C(=O)[C@H](CCCNC(=N)N)NC(=O)CNC(=O)[C@@H]1CCCN1C(=O)[C@@H](N)CO)C(=O)N[C@@H](Cc1ccccc1)C(=O)N[C@@H](CCCNC(=N)N)C(=O)N1CCC[C@H]1C(=O)N[C@@H](CCCNC(=N)N)C(N)=O [Arasin 1(5–23)] (H-SPGRPRPFPGRPKPIFRPR-NH2; N-terminus assumed) | >100 | >100 | 6.3 (≈ 14 µg/mL) | >100 | 12.5 | 25 | 25 |  | 100 (≈ 221 µg/mL) | 
5 | CC[C@H](C)[C@H](NC(=O)[C@@H]1CCCN1C(=O)[C@H](CCCCN)NC(=O)[C@@H]1CCCN1C(=O)[C@H](CCCNC(=N)N)NC(=O)CNC(=O)[C@@H]1CCCN1C(=O)[C@H](Cc1ccccc1)NC(=O)[C@@H]1CCCN1C(=O)[C@H](CCCNC(=N)N)NC(=O)[C@@H]1CCCN1C(=O)[C@H](CCCNC(=N)N)NC(=O)CN)C(=O)N[C@@H](Cc1ccccc1)C(=O)N[C@@H](CCCNC(=N)N)C(=O)N1CCC[C@H]1C(=O)N[C@@H](CCCNC(=N)N)C(N)=O [Arasin 1(7–23)] (H-GRPRPFPGRPKPIFRPR-NH2; N-terminus assumed) | 50 to 100 | 50 to 100 | 3.1 (≈ 6.29 µg/mL) | >100 | 12.5 | 25 |  |  | 25 (≈ 50.8 µg/mL) | 50
6 | CC[C@H](C)[C@H](NC(=O)[C@@H]1CCCN1C(=O)[C@H](CCCCN)NC(=O)[C@@H]1CCCN1C(=O)[C@H](CCCNC(=N)N)NC(=O)CNC(=O)[C@@H]1CCCN1C(=O)[C@H](Cc1ccccc1)NC(=O)[C@@H]1CCCN1C(=O)[C@H](CCCNC(=N)N)NC(=O)[C@@H]1CCCN1)C(=O)N[C@@H](Cc1ccccc1)C(=O)N[C@@H](CCCNC(=N)N)C(=O)N1CCC[C@H]1C(=O)N[C@@H](CCCNC(=N)N)C(N)=O [Arasin 1(9–23)] (H-PRPFPGRPKPIFRPR-NH2; N-terminus assumed) | >100 | >100 | 12.5 (≈ 22.7 µg/mL) | >100 | 25 |  |  | 50 | 100 (≈ 182 µg/mL) | 50
7 | CC[C@H](C)[C@H](NC(=O)[C@@H]1CCCN1C(=O)[C@H](CCCCN)NC(=O)[C@@H]1CCCN1C(=O)[C@H](CCCNC(=N)N)NC(=O)CNC(=O)[C@@H]1CCCN1C(=O)[C@H](Cc1ccccc1)NC(=O)[C@@H]1CCCN1C(=O)[C@H](CCCNC(=N)N)NC(=O)[C@@H]1CCCN1C(=O)[C@H](CCCNC(=N)N)NC(=O)CNC(=O)[C@@H]1CCCN1C(=O)[C@H](CO)NC(=O)[C@@H]1CCCN1C(=O)[C@H](Cc1c[nH]c2ccccc12)NC(=O)[C@H](CCCNC(=N)N)NC(=O)[C@@H](N)CO)C(=O)N[C@@H](Cc1ccccc1)C(=O)N[C@@H](CCCNC(=N)N)C(=O)N1CCC[C@H]1C(=O)N[C@@H](CCCNC(=N)N)C(=O)N1CCC[C@H]1C(=O)N[C@@H](CSCNC(C)=O)C(=O)N[C@@H](CC(N)=O)C(=O)N[C@@H](CSCNC(C)=O)C(=O)N[C@@H](Cc1ccc(O)cc1)C(=O)N[C@@H](C)C(=O)N1CCC[C@H]1C(=O)N1CCC[C@H]1C(=O)N[C@@H](CSCNC(C)=O)C(=O)N1CCC[C@H]1C(=O)N[C@@H](CSCNC(C)=O)C(=O)N[C@@H](CC(=O)O)C(=O)N[C@@H](CCCNC(=N)N)C(=O)N[C@@H](Cc1c[nH]c2ccccc12)C(=O)O [Arasin 1-Acm] (H-SRWPSPGRPRPFPGRPKPIFRPRPC(Acm)NC(Acm)YAPPC(Acm)PC(Acm)DRW-OH; N-terminus and C-terminus assumed) | 25 to 50 | 100 (≈ 463 µg/mL) | 0.8 (≈ 3.71 µg/mL) | >100 | 12.5 | 25 | 12.5 to 50 |  |  | 

From PMC3543460, “Structure-Activity Relationships of the Antimicrobial Peptide Arasin 1 — And Mode of Action Studies of the N-Terminal, Proline-Rich Region” (PLoS ONE, 2013)
